Test results reported in ChEMBL document CHEMBL4334438, “Discovery of novel glycogen synthase kinase-3α inhibitors: Structure-based virtual screening, preliminary SAR and biological evaluation for treatment of acute myeloid leukemia” (Eur J Med Chem, 2019).

Key:
[1] = system: Ribosomal protein S6 kinase beta-1 (Homo sapiens), P23443 [T412E]; assay: Inhibition of recombinant human p70S6K T412E mutant (1 to 421 residues) assessed as residual activity at 1 uM using KKRNRTLTV as substrate measured after 40 mins in presence of [gamma33P]ATP by scintillation counting method relative to control
[2] = target: Mitogen-activated protein kinase 14 (Homo sapiens) (UniProt Q16539); assay: Inhibition of recombinant human full length SAPK2a assessed as residual activity at 1 uM using myelin basic protein as substrate measured after 40 mins in presence of [gamma33P]ATP by scintillation counting method relative to control
[3] = target: Tyrosine-protein kinase Lck (Homo sapiens) (UniProt P06239); assay: Inhibition of recombinant full length human LCK assessed as residual activity at 1 uM using KVEKIGEGTYGVVYK as substrate after 40 mins in presence of [gamma-33ATP] by scintillation counting based radiometry assay relative to control
[4] = target: Protein kinase C beta type (Homo sapiens) (UniProt P05771); assay: Inhibition of recombinant human PKCbeta2 (2 to end residues) assessed as residual activity at 1 uM using histone H1 as substrate measured after 40 mins in presence of [gamma33P]ATP by scintillation counting method relative to control
[5] = target: Calcium/calmodulin-dependent protein kinase type IV (Homo sapiens) (UniProt Q16566); assay: Inhibition of recombinant full length human CaMK4 assessed as residual activity at 1 uM […] incubated for 40 mins in presence of [gamma-33ATP] by scintillation counting based radiometry assay relative to control
Sequence of Calcium/calmodulin-dependent protein kinase type IV (Homo sapiens) (Q16566 whole entry): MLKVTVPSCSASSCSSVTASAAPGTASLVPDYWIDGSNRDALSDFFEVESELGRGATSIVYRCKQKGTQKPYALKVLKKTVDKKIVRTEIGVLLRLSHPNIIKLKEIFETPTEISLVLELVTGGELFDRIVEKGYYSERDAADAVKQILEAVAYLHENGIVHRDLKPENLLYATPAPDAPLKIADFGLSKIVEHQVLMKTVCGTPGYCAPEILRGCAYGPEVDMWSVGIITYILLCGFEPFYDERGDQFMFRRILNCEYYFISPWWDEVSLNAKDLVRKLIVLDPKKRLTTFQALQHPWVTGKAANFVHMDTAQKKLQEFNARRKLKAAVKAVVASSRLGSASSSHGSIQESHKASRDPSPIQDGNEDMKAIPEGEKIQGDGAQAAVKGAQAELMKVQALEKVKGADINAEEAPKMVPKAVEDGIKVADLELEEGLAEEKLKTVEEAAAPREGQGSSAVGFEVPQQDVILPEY

[6] = target: Casein kinase II subunit alpha (Homo sapiens) (UniProt P68400); assay: Inhibition of recombinant full length human CK2alpha1 assessed as residual activity at 1 uM using RRRDDDSDDD as substrate incubated 40 mins in presence of [gamma-33ATP] by scintillation counting based radiometry assay relative to control
Sequence of Casein kinase II subunit alpha (Homo sapiens) (P68400 whole entry, looked up, the tested form may be a part): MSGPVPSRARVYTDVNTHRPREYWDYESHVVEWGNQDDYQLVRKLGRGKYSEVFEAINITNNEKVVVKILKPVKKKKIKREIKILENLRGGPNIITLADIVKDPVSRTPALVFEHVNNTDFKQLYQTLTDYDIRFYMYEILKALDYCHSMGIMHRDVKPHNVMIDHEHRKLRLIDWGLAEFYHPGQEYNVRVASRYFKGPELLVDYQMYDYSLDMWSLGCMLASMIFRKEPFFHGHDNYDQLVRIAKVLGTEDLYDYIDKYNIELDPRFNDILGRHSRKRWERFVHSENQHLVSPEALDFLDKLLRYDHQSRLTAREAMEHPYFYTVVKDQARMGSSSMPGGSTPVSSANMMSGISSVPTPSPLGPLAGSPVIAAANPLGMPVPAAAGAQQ

[7] = target: Serine/threonine-protein kinase ULK1 (Homo sapiens) (UniProt O75385); assay: Inhibition of human ULK1 (1 to 314 residues) assessed as residual activity at 1 uM using casein as substrate measured after 40 mins in presence of [gamma33P]ATP by scintillation counting method relative to control
[8] = system: Macrophage colony-stimulating factor 1 receptor (Homo sapiens), P07333 [Y969C]; assay: Inhibition of recombinant human FMS Y969C mutant (538 to end residues) assessed as residual activity at 1 uM using EEEEYEEEEEEYYIIEEEEEEYEEEEEEYYEEEEEEKKKK as substrate at 40 mins in presence of [gamma-33ATP] by scintillation counting based radiometry assay relative to control
Sequence of Macrophage colony-stimulating factor 1 receptor (Homo sapiens), P07333 [Y969C] (P07333 whole entry Y969C): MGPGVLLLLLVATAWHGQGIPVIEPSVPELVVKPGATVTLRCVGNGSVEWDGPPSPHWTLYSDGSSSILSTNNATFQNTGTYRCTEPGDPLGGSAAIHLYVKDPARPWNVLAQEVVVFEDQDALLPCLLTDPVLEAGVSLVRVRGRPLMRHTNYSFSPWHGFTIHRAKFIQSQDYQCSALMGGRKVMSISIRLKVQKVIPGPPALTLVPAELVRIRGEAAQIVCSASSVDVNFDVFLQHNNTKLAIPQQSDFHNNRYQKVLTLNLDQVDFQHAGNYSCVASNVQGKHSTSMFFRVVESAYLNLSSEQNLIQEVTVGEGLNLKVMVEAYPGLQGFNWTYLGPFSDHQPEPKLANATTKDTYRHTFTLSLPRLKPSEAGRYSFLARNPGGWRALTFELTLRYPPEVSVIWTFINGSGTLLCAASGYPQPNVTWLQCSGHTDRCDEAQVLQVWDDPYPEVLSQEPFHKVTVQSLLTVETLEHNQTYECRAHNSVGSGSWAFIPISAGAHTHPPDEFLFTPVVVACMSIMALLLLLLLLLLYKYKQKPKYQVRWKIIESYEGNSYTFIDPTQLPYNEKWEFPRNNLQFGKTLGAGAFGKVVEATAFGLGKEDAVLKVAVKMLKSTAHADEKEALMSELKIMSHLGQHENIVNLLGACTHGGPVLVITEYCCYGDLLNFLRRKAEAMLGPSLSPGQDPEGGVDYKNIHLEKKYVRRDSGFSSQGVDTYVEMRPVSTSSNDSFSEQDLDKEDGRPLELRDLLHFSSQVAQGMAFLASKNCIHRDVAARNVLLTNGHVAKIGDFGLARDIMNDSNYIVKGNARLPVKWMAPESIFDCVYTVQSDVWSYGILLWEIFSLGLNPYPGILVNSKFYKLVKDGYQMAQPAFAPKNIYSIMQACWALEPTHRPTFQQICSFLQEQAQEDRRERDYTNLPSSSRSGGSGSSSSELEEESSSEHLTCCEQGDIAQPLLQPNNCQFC

[9] = system: Tyrosine-protein kinase ABL1 (Homo sapiens), P00519 [H396P]; assay: Inhibition of human ABL1 H396P mutant (27 to end residues) assessed as residual activity at 1 uM using EAIYAAPFAKKK as substrate incubated for 40 mins in presence of [gamma-33ATP] by scintillation counting based radiometry assay relative to control
[10] = target: Ribosomal protein S6 kinase alpha-2 (Homo sapiens) (UniProt Q15349); assay: Inhibition of recombinant full length human Rsk3 assessed as residual activity at 1 uM using KKKNRTLSVA as substrate measured after 40 mins in presence of [gamma33P]ATP by scintillation counting method relative to control
Homo sapiens [11] = organism: Homo sapiens; assay: Inhibition of recombinant human MARK1 V16E/T20S mutant (2 to end residues) assessed as residual activity at 1 uM using KKKVSRSGLYRSPSMPENLNRPR as substrate incubated for 40 mins in presence of [gamma-33ATP by scintillation counting based radiometry assay relative to control
[12] = target: Rhodopsin kinase GRK1 (Homo sapiens) (UniProt Q15835); assay: Inhibition of recombinant full length human GRK1 assessed as residual activity at 1 uM using KKKKERLLDDRHDSGLDSMKDEE as substrate at 40 mins in presence of [gamma-33ATP] by scintillation counting based radiometry assay relative to control
[13] = system: TGF-beta receptor type-1 (Homo sapiens), P36897 [T204D]; assay: Inhibition of human TGFBR1 T204D mutant (200 to end residues) assessed as residual activity at 1 uM using casein as substrate measured after 40 mins in presence of [gamma33P]ATP by scintillation counting method relative to control
Sequence of TGF-beta receptor type-1 (Homo sapiens), P36897 [T204D] (P36897 whole entry T204D): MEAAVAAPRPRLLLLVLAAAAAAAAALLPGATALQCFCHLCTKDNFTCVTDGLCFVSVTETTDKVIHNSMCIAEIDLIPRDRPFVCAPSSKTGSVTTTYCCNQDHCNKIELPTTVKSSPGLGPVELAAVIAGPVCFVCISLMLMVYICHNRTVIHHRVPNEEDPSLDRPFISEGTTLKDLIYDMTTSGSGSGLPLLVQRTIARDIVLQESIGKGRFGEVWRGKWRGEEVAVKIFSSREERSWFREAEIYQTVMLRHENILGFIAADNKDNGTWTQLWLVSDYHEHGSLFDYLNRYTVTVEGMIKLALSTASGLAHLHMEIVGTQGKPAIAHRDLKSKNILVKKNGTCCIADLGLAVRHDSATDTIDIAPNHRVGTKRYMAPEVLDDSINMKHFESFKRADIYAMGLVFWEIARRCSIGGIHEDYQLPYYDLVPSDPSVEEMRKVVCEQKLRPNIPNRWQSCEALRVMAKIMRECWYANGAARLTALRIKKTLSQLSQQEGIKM

[14] = system: Hepatocyte growth factor receptor (Homo sapiens), P08581 [Y1230H]; assay: Inhibition of recombinant human MET A1209G/V1290L/Y1248H mutant (974 to end residues) assessed as residual activity at 1 uM using KKKGQEEEYVFIE as substrate incubated for 40 mins in presence of [gamma-33ATP by scintillation counting based radiometry assay relative to control
[15] = target: Proto-oncogene tyrosine-protein kinase receptor Ret (Homo sapiens) (UniProt P07949); assay: Inhibition of recombinant human Ret (658 to end residues) assessed as residual activity at 1 uM using KKKSPGEYVNIEFG as substrate measured after 40 mins in presence of [gamma33P]ATP by scintillation counting method relative to control
Sequence of Proto-oncogene tyrosine-protein kinase receptor Ret (Homo sapiens) (P07949 whole entry, the tested form may be a part): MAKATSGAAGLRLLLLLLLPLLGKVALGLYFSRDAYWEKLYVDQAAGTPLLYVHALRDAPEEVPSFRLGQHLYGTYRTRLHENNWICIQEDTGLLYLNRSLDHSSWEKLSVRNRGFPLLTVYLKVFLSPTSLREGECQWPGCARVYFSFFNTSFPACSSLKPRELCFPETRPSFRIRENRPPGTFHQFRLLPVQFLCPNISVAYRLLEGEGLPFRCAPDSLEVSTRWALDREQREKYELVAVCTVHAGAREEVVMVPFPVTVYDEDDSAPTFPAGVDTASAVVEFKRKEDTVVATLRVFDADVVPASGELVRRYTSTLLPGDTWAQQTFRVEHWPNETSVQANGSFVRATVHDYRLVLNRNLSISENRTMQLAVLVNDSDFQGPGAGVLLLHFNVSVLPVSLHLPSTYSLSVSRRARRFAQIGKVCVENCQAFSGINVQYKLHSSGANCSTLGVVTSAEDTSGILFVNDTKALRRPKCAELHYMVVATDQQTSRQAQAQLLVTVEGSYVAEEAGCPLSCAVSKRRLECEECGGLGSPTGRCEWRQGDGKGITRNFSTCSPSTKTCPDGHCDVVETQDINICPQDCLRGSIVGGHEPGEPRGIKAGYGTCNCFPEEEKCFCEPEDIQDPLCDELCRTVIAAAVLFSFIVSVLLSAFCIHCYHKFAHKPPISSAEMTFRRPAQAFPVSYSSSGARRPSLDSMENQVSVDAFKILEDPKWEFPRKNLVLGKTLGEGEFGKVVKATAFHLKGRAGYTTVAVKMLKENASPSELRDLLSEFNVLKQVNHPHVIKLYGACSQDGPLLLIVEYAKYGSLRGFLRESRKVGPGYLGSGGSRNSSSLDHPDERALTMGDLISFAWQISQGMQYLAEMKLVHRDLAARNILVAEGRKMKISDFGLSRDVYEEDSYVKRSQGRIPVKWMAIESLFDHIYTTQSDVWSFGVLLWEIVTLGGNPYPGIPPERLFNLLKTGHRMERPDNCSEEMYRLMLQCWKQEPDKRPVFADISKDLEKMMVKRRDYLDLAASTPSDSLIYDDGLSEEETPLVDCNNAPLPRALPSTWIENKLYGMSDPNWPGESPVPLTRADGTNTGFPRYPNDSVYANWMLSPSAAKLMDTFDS

[16] = system: Fibroblast growth factor receptor 1 (Homo sapiens), P11362 [V561M]; assay: Inhibition of recombinant human FGFR1 V561M mutant (456 to 765 residues) assessed as residual activity at 1 uM using GGEEEEYFELVKKKK as substrate at 40 mins in presence of [gamma-33ATP] by scintillation counting based radiometry assay relative to control
[17] = target: NUAK family SNF1-like kinase 1 (Homo sapiens) (UniProt O60285); assay: Inhibition of recombinant human ARK5 (2 to end residues) assessed as residual activity at 1 uM using KKKVSRSGLYRSPSMPENLNRPR as substrate incubated for 40 mins in presence of [gamma-33ATP] by scintillation counting based radiometry assay relative to control
Sequence of NUAK family SNF1-like kinase 1 (Homo sapiens) (O60285 whole entry): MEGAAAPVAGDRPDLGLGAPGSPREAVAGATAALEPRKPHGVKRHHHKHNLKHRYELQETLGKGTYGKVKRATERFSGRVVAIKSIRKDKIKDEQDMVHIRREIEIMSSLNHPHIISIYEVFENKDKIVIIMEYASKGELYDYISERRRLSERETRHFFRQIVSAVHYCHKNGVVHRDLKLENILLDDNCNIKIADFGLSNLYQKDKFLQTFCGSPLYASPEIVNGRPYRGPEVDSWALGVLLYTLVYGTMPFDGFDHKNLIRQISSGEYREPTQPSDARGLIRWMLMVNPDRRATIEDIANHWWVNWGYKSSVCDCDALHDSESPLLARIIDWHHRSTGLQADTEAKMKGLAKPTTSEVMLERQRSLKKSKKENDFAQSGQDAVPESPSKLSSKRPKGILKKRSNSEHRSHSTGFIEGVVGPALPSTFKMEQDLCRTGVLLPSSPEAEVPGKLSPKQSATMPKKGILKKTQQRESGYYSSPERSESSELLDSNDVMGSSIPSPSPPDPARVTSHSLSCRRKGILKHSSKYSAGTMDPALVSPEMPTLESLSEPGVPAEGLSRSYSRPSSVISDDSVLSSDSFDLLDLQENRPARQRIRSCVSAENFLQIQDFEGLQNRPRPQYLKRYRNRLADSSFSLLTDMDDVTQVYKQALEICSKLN

[18] = target: Serine/threonine-protein kinase pim-2 (Homo sapiens) (UniProt Q9P1W9); assay: Inhibition of recombinant human Pim2 (2 to end residues) assessed as residual activity at 1 uM using RSRHSSYPAGT as substrate measured after 40 mins in presence of [gamma33P]ATP by scintillation counting method relative to control
Sequence of Serine/threonine-protein kinase pim-2 (Homo sapiens) (Q9P1W9 whole entry, looked up): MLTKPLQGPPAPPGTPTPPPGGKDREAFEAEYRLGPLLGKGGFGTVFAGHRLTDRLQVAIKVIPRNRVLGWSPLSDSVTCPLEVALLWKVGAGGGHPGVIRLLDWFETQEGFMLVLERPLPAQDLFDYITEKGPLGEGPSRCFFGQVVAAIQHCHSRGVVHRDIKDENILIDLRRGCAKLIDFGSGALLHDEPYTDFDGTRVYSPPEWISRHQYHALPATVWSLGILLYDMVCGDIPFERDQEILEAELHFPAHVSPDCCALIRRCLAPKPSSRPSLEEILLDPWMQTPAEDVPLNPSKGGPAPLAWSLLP

Homo sapiens [19] = organism: Homo sapiens; assay: Inhibition of recombinant full-length human ATRIP/ATR M211T mutant at 1 uM assessed as residual activity at 1 uM using GST-cMyc-p53 as substrate measured after 40 mins by fluorescence assay
[20] = target: SRSF protein kinase 3 (Homo sapiens) (UniProt Q9UPE1); assay: Inhibition of recombinant full-length human MSSK1 assessed as residual activity at 1 uM using ERMRPRKRQGSVRRRV as substrate measured after 40 mins in presence of [gamma33P]ATP by scintillation counting method relative to control
[21] = target: Glycogen synthase kinase-3 beta (Homo sapiens, UniProt P49841, H350L); assay: Inhibition of human GSK-3beta H350L mutant (2 to end residues) at 10 uM using phospho GS2 peptide as substrate after 40 mins by [gamma-33ATP] radiometric assay
Sequence of Glycogen synthase kinase-3 beta (P49841 whole entry, looked up, stated change not applied): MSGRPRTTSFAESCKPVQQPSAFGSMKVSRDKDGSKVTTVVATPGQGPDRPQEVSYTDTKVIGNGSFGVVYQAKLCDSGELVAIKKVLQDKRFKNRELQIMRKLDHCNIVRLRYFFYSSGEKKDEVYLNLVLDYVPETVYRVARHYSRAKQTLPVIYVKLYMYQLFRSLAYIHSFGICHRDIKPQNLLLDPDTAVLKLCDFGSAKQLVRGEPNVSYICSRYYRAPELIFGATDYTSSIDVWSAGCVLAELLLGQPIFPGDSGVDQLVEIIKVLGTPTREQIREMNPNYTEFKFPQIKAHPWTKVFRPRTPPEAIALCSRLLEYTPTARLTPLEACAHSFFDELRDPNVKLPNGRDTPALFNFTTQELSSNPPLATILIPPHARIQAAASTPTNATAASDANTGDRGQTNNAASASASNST

Structure (SMILES) | Activity [1] | Activity [2] | Activity [3] | Activity [4] | Activity [5] | Activity [6] | Activity [7] | Activity [8] | Activity [9] | Activity [10] | Activity (Homo sapiens [11]) | Activity [12] | Activity [13] | Activity [14] | Activity [15] | Activity [16] | Activity [17] | Activity [18] | Activity (Homo sapiens [19]) | Activity [20] | other results
N=C1NC(=O)/C(=C\c2ccc(-c3cccc([N+](=O)[O-])c3)o2)S1 | 99% | 100% | 89% | 92% | 87% | 57% | 98% | 106% | 80% | 96% | 89% | 97% | 111% | 106% | 92% | 91% | 99% | 6% | 111% | 96% | IC50 [21]: 0.11 µM
C=CCOC(=O)c1cc(-c2ccc(/C=C3/NC(=S)NC3=O)o2)ccc1Cl | 108% | 101% | 86% | 100% | 95% | 59% | 98% | 95% | 110% | 112% | 91% | 104% | 92% | 116% | 102% | 102% | 79% | 10% | 102% | 99% | IC50 [21]: 0.218 µM
